Experimental data taken from US20080274892A1, “Novel Haloalkylsulfonanilide Derivative, Herbicide, and Method of Use Thereof” (priority 2005, published 2008).

What was measured:
barnyard glass = experiment: Test Example 2: herbicidal efficacy on rice paddy weeds post-emergence; format: in vivo, Echinochloa crus-galli; settings: post-emergence, one leaf stage, 21 days after treatment
Summary of the method: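 Plastic pots of 75 cm^2 were filled with clay loam soil and sown with barnyard glass and bulrush seeds, then topped with 75 cm^3 soil containing false pimpernel seeds. The pots were flooded to 5 cm water depth and held in a hot house. Twenty-one days after treatment, herbicidal efficacy was graded against an untreated control.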

false pimpernel [1] = experiment: Test Example 1: herbicidal efficacy on rice paddy weeds pre-emergence; format: in vivo, Lindernia pyxidaria; settings: 21 days
false pimpernel [2] = experiment: Test Example 2: herbicidal efficacy on rice paddy weeds post-emergence; format: in vivo, Lindernia pyxidaria; settings: post-emergence, one leaf stage, 21 days after treatment
bulrush [3] = experiment: as above; format: in vivo, Scirpus juncoides; settings: post-emergence, one leaf stage, 21 days after treatment
[4] = tested on: paddy rice plant (cultivar: Nihonbare); experiment: Test Example 3: phytotoxicity test for transplanted paddy rice plant; format: in vivo; settings: transplanted rice, 21 days after treatment
Summary of the method: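 Clay loam soil was placed in a 75 cm^2 plastic pot and flooded to a water depth of 5 cm. Two Nihonbare paddy rice plants at the two-leaf stage were transplanted 1 cm deep and grown in a hot house. After treatment, pots stayed in the hot house for 21 days, and phytotoxicity was then graded against an untreated control.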

bulrush [5] = experiment: Test Example 1: herbicidal efficacy on rice paddy weeds pre-emergence; format: in vivo, Scirpus juncoides; settings: 21 days
[6] = dosage 1000 g/ha, treated 5 days after transplantation

| SMILES | Burnyard grass post (herbicidal efficacy grade) (barnyard glass; dosage 1000 g/ha) | False pimpernel pre (herbicidal efficacy grade) (false pimpernel [1]; dosage 1000 g/ha) | False pimpernel post (herbicidal efficacy grade) (false pimpernel [2]; dosage 1000 g/ha) | Bulrush post (herbicidal efficacy grade) (bulrush [3]; dosage 1000 g/ha) | Phytotoxicity to paddy rice [4, 6] | Bulrush pre (herbicidal efficacy grade) (bulrush [5]; dosage 1000 g/ha) | Burnyard grass post (herbicidal efficacy grade) (barnyard glass; dosage 300 g/ha) | False pimpernel pre (herbicidal efficacy grade) (false pimpernel [1]; dosage 300 g/ha) | False pimpernel post (herbicidal efficacy grade) (false pimpernel [2]; dosage 300 g/ha) | Bulrush post (herbicidal efficacy grade) (bulrush [3]; dosage 300 g/ha) | Phytotoxicity to paddy rice ([4]; dosage 300 g/ha) | Bulrush pre (herbicidal efficacy grade) (bulrush [5]; dosage 300 g/ha) |
| --- | --- | --- | --- | --- | --- | --- | --- | --- | --- | --- | --- | --- |
| CC(C)COC(=O)N(c1ccccc1CN1C(=O)SC(C)C1=O)S(=O)(=O)C(F)(F)F (stereo not drawn) [Compound 1-200] | 1 (1%-39% of herbicidal efficacy or phytotoxicity) | 2 (40%-69% of herbicidal efficacy or phytotoxicity) | 3 (70%-89% of herbicidal efficacy or phytotoxicity) | 3 (70%-89% of herbicidal efficacy or phytotoxicity) | 0 (0% of herbicidal efficacy or phytotoxicity) | 4 (90%-100% of herbicidal efficacy or phytotoxicity) |  |  |  |  |  |  |
| CCCCC1COC(=O)N1Cc1ccccc1NS(=O)(=O)C(F)(F)F (stereo not drawn) [Compound 1-11] |  |  |  |  |  |  | 0 (0% of herbicidal efficacy or phytotoxicity) | 2 (40%-69% of herbicidal efficacy or phytotoxicity) | 1 (1%-39% of herbicidal efficacy or phytotoxicity) | 3 (70%-89% of herbicidal efficacy or phytotoxicity) | 0 (0% of herbicidal efficacy or phytotoxicity) | 4 (90%-100% of herbicidal efficacy or phytotoxicity) |
| COC(=O)N(c1ccccc1CN1CC(C)(COCc2ccccc2)OC1=O)S(=O)(=O)C(F)(F)F (stereo not drawn) [Compound 1-175] | 4 (90%-100% of herbicidal efficacy or phytotoxicity) | 4 (90%-100% of herbicidal efficacy or phytotoxicity) | 4 (90%-100% of herbicidal efficacy or phytotoxicity) | 4 (90%-100% of herbicidal efficacy or phytotoxicity) | 1 (1%-39% of herbicidal efficacy or phytotoxicity) | 4 (90%-100% of herbicidal efficacy or phytotoxicity) |  |  |  |  |  |  |
| CC1(c2ccccc2)CN(Cc2ccccc2NS(=O)(=O)C(F)(F)F)C(=O)O1 (stereo not drawn) [Compound 1-140] |  |  |  |  |  |  | 2 (40%-69% of herbicidal efficacy or phytotoxicity) | 4 (90%-100% of herbicidal efficacy or phytotoxicity) | 4 (90%-100% of herbicidal efficacy or phytotoxicity) | 4 (90%-100% of herbicidal efficacy or phytotoxicity) | 1 (1%-39% of herbicidal efficacy or phytotoxicity) | 4 (90%-100% of herbicidal efficacy or phytotoxicity) |
| O=C1OC(C(F)(F)F)CN1Cc1ccccc1NS(=O)(=O)C(F)(F)F (stereo not drawn) [Compound 1-19] |  |  |  |  |  |  | 2 (40%-69% of herbicidal efficacy or phytotoxicity) | 3 (70%-89% of herbicidal efficacy or phytotoxicity) | 2 (40%-69% of herbicidal efficacy or phytotoxicity) | 4 (90%-100% of herbicidal efficacy or phytotoxicity) | 0 (0% of herbicidal efficacy or phytotoxicity) | 4 (90%-100% of herbicidal efficacy or phytotoxicity) |
| CCCC1CN(Cc2ccccc2N(C(=O)OCC(C)C)S(=O)(=O)C(F)(F)F)C(=O)O1 (stereo not drawn) [Compound 1-30] | 4 (90%-100% of herbicidal efficacy or phytotoxicity) | 4 (90%-100% of herbicidal efficacy or phytotoxicity) | 4 (90%-100% of herbicidal efficacy or phytotoxicity) | 4 (90%-100% of herbicidal efficacy or phytotoxicity) | 0 (0% of herbicidal efficacy or phytotoxicity) | 4 (90%-100% of herbicidal efficacy or phytotoxicity) |  |  |  |  |  |  |
